A short description of data set [1]: Azure A metachromatic assay. The class given is binding. To be noted: HS 0.2 mg/ml, Azure A 23 μg/ml, peptide 1–300 μg/ml, 15 min at RT. The procedure: The possible interaction of peptide conjugate with HS was investigated by incubation the mixtures containing a constant concentration of HS (0.2 mg/ml, Sigma Aldrich) and solutions of CPP1-PEG-LK6 at different concentrations (1–300 μg/ml). Next, the mixtures were shaken for 15 min at room temperature. […] Azure A, a cationic dye when binding to heparin and/or HS changes its adsorption spectrum ([35]).

The nature of data set [2]: Analytical RP-HPLC retention time. To be noted: Phenomenex Jupiter 4 μ Proteo 90 Å, 250 × 4.60 mm, listed as basic physicochemical characteristic. The procedure: The synthesized compounds were then purified by reverse-phase high-performance liquid chromatography (RP-HPLC) on a Waters system (Phenomenex Jupiter 4 μ Proteo 90 Å column, 250 × 10 mm). A linear gradient from 10% to 80% of solvent B over 60 min (Solvent A: 0.1% TFA in water; Solvent B: 80% acetonitrile in Solvent A) was employed with a flow rate 5 ml/min. The homogeneity of the final peptide fractions was analyzed using a Shimadzu HPLC System (Shimadzu Europe GmbH, Duisburg, Germany) equipped with a Phenomenex Jupiter 4 μ Proteo 90 Å column, 250 × 4.60 mm. The mass spectra of the synthesized peptides were recorded using a Biflex III MALDI-TOF mass spectrometry (Bruker, Mannheim, Germany) with α-cyano-4-hydroxy-cinnamic acid (CCA) or 2,5-dihydroxybenzoic acid (DHB) used as the matrix.

The test system of data set [3] is HSV-1. To be noted: concentration reducing viral replication by 50%; TIGKs cells pre-treated, infected and cultivated with compound; qPCR; mean of two independent experiments.
Protocol: Data were expressed as means ± SD. Statistical significance was determined using unpaired t-test, one-way ANOVA, and/or two-way ANOVA for direct comparisons between single groups. A p-value <0.05 was considered statistically significant. We used GrapPad Prism 10 software for the analyses. […]
The test system of data set [4] is HSV-1. The experiment in a line: Attachment (adsorption) assay in TIGKs cells. Format: cell-based, herpes simplex virus type 1. Conditions: 15 μg/ml present only during infection, 2 h at 4°C, 48 h. Here is the method:
(§1) HSV-1 stocks were generated by infecting Vero E6 cells. Cells were lysed at 48 h p.i. by two freeze-thaw cycles. The virus containing fluid was aliquoted and stored at −80°C. A control Vero E6 cell lysate from mock-infected cells was prepared in the same manner as the virus stock. Virus yield was assessed by virus titration on fully confluent Vero E6 cells in 96-well plates, according to the method of Reed & Muench ([32]). Plates were incubated at 37°C for 48 h and the occurrence of a cytopathic effect was scored using an inverted microscope, and TCID50 (50% tissue culture infection dose) was calculated.
TIGKs cells were seeded in 12-well plates and cultured for 48 h. Next, keratinocytes were infected with HSV-1 (TCID50 400 /ml) or treated with mock in the presence of DAL-PEG-LK6 or CPP1-PEG-LK6 (15 μg/ml) for 2 h at 4°C. […] Next, samples were collected, and viral yield was determined using titration and qPCR.
Viral DNA was isolated from the conditioned media or the apical washes of inserts (OTG model) using Viral DNA/RNA Isolation Kit (A&A Biotechnology). The virus yield assessed by quantitative real-time PCR (qPCR). […] DNA quantification standards were prepared. […] The number of copies per mL was estimated after the concentration of linearized DNA was assessed spectrophotometrically.

In data set [5] the test system is HSV-1. The data set is described as follows: Virion integrity assay. The class given is cell-based, herpes simplex virus type 1. To be noted: virions pre-treated 1 h at RT with 15 μg/ml, then TIGKs infected; qPCR up to 48 h p.i.; compared to Triton X-100. The procedure:
HSV-1 samples were incubated with DAL-PEG-LK6 and CPP1-PEG-LK6 (15 μg/ml) for 1 h at room temperature on a shaker. Additionally, Triton X-100 was used as a positive control. Next, the mixtures were diluted to decrease tested molecules concentrations (0.65 ng/ml) and were used to infect TIGKs monolayers. After 48 h of incubation, supernatants were collected, and the quantity of HSV-1 DNA copies was determined using qPCR.
Viral DNA was isolated from the conditioned media or the apical washes of inserts (OTG model) using Viral DNA/RNA Isolation Kit (A&A Biotechnology). The virus yield assessed by quantitative real-time PCR (qPCR). The reaction was carried out in a CFX96 Touch Real-Time PCR Detection System (Bio-Rad), in a 10 μl reaction mixture consisting of TaqMan^TM Fast Advanced Master Mix, TaqMan^TM Microbe Detection assay against HSV-1 (Vi04230116_s1) and 1 μl of viral DNA. The temperature profile was 10 s at 95°C, followed by 40 cycles of 3 s at 95°C and 20 s at 60°C. DNA quantification standards were prepared. In summary, a fragment of viral DNA was amplified using the primers listed above and cloned into the pTZ57R/T plasmid using the InsTAclone PCR cloning kit. […] The number of copies per mL was estimated after the concentration of linearized DNA was assessed spectrophotometrically.
A general note: In qPCR the cycle at which signal appears reflects the starting amount.

The subject of data set [6] is HSV-1. The experiment in a line: Virus inhibition (replication) assay in Vero E6 and TIGKs cells, qPCR, titration, gB Western blot. Format: cell-based, herpes simplex virus type 1. Conditions: 48 h p.i. Here is the method: as §1
Vero E6 or TIGKs cells were seeded in 12-well plates and cultured for 48 h. […] After 30 min of incubation at 37°C, cells were infected with HSV-1 at TCID50 400 /ml or treated with mock. After 2 h of infection at 37°C, unbound viral particles were removed by washing with PBS, and culture media supplemented with peptide conjugates were applied. Following 48 h of incubation, media were collected, and the quantity of HSV-1 DNA copies was assessed using titration and qPCR.
Viral DNA was isolated from the conditioned media or the apical washes of inserts (OTG model) using Viral DNA/RNA Isolation Kit (A&A Biotechnology). The virus yield assessed by quantitative real-time PCR (qPCR). The reaction was carried out in a CFX96 Touch Real-Time PCR Detection System (Bio-Rad), in a 10 μl reaction mixture consisting of TaqMan^TM Fast Advanced Master Mix, TaqMan^TM Microbe Detection assay against HSV-1 (Vi04230116_s1) and 1 μl of viral DNA. The temperature profile was 10 s at 95°C, followed by 40 cycles of 3 s at 95°C and 20 s at 60°C. DNA quantification standards were prepared. In summary, a fragment of viral DNA was amplified using the primers listed above and cloned into the pTZ57R/T plasmid using the InsTAclone PCR cloning kit. The plasmid was propagated in E. coli, purified with the GeneJet Plasmid Miniprep Kit, and digested with the EcoR1 restriction enzyme. The number of copies per mL was estimated after the concentration of linearized DNA was assessed spectrophotometrically.
Protein extracts were prepared using lysis buffer (0.25% Na-deoxycholate, 0.5% Nonidet P-40, 0.05% SDS, protease inhibitor mixture, 2.5 mM EDTA in PBS), and the protein concentration was assessed using Pierce BCA (Thermo Fisher) protein assay kit. Equal amounts of cell extracts were separated on 10% SDS-PAGE gel and electrotransferred onto polyvinylidene difluoride membranes for gB and β-actin in transfer buffer (25 mM Tris, 0.2 M glycine, and 20% ethanol) for 90 min at 100 V. Nonspecific binding sites were blocked for 90 min in 5% skimmed milk prepared in TBST buffer (20 mM Tris, pH 7.5, 0.5 M NaCl, 0.05% Tween 20). Membranes were further incubated overnight at 4°C with primary antibodies: mouse anti-HSV-1 + HSV-2 gB (1:5000; abcam) and mouse anti-β-actin (1:4,000; BD Biosciences). The following day, membranes were washed three times with TBST buffer and incubated with HRP-conjugated secondary antibodies for 60 min at 37°C: goat anti-mouse IgG (1:20,000; β-actin; BD Bioscience) or sheep anti-mouse IgG (1:50,000; gB; Sigma Aldrich). Next, blots were washed five times for 5 min in TBST buffer, developed using Luminata Cresecendo Substarte (Merck) and exposed to AGFA medical x-ray film. Densitometry analysis was performed using ImageJ 1.52q software.

Converted amounts (≈) assume the structure as drawn. Square brackets hold non-standard residues; d marks the D form. Peptide text beside a SMILES is read from it. AEEA = NCCOCCOCC(=O)O

The term IC50 denotes the concentration that gives 50% inhibition.

Protocol for in vitro: The viability of Vero E6 and TIGKs cells was examined by the XTT Cell Viability Assay kit (Biological Industries, USA). Briefly, cells were treated with indicated concentrations of the peptide conjugates for 48 h at 37°C. Next, the fresh medium was added to the cells and 50 μl of the activated XTT reagent [2,3-bis(2-methoxy-4-nitro-5-sulphenyl)-2H-tetrazolium-5-carboxanilide] was added and further incubated for 2 h at 37°C. Absorbance was measured at a wavelength of 480 nm using FlexStation 3 microplate reader (Molecular Device, Wokingham, UK). The results were expressed normalized against a control of untreated cells (100% viability). To assess the effect of peptide conjugate on the integrity of the plasma membrane, the LDH release assay was performed using the CytoTox96 nonradioactive cytotoxicity assay kit (Promega, Madison, WI, USA) according to the manufacturer's instructions. Cytotoxicity was calculated with the formula: % cytotoxicity = 100 × (experimental LDH release/ maximum LDH release), where maximum LDH release is after lysis solution addition (Triton X-100). Relative amounts of LDH release were measured (absorbance at 490 nm) using FlexStation 3 microplate reader (Molecular Device, Wokingham, UK). […]
Data were expressed as means ± SD. Statistical significance was determined using unpaired t-test, one-way ANOVA, and/or two-way ANOVA for direct comparisons between single groups. […]

As for `CC[C@H](C)[C@H](NC(=O)COCCOCCNC(=O)[C@@H](NC(=O)[C@H](CC(C)C)NC(=O)[C@H](Cc1ccc(O)cc1)NC(=O)[C@@H](NC(=O)[C@H](Cc1ccccc1)NC(=O)[C@@H]1CCCN1)C(C)C)[C@@H](C)CC)C(=O)N[C@@H](CCCCN)C(=O)N[C@@H](CCCCN)C(=O)N[C@H](C(=O)N[C@@H](CC(C)C)C(=O)N[C@@H](CO)C(=O)N[C@@H](CCCCN)C(=O)N[C@H](C(=O)N[C@@H](CCCCN)C(=O)N[C@@H](CCCCN)C(=O)N[C@@H](CC(C)C)C(=O)N[C@@H](CC(C)C)C(=O)N[C@@H](CCCCN)C(N)=O)[C@@H](C)CC)[C@@H](C)CC` [CPP1-PEG-LK6] (H-PFVYLI[AEEA]IKKILSKIKKLLK-NH2), the “interaction with heparan sulfate (Azure A release, absorbance at 630 nm)” value in data set [1] was “releases Azure A from HS”. In addition, in data set [2], the Rt stood at 25.247. In addition, the IC50 with HSV-1 [3] came out at 0.942 µg/mL (≈ 0.388 µM). The compound also gave a CC50 at 48 h in the data set “in vitro” of 23.4 µg/mL (≈ 9.63 µM). Also, the “decrease in viral yield, attachment assay, qPCR” value with HSV-1 [4] (Figure 2D) is approximately 95%. For the same compound, in the data set on HSV-1 [4] (Figure 2E), the “decrease in viral titer, attachment assay, titration” value was approximately 97%. In addition, the “effect on HSV-1 virion integrity” value in the data set with HSV-1 [5] is recorded as “no inhibitory effect”. For the same compound, in the data set with HSV-1 [6] (15 μg/ml before, during and after infection, normalized to β-actin, cell line not stated), the “expression level of gB (Western blot)” value is reported as “significantly suppressed the expression level of gB”. Also, the “reduction in viral yield in the qPCR test” value with HSV-1 [6] (Figure 1C, Vero E6 (DAL-PEG-LK6 and CPP1-PEG-LK6 25 μg/ml; CPP2-PEG-LK6 10 μg/ml) and TIGKs cells (15 μg/ml)) is given as 3 log. Also, the “reduction of virus replication in titration assay” value in the data set with HSV-1 [6] (Figure 1D, both cell models (Vero E6, TIGKs), normalized to untreated control) was “over 99%”.

The values are drawn from PMC11215077, “Antiviral activity of temporin-1CEb analogues against gingival infection with herpes simplex virus type 1” (Frontiers in Oral Health, 2024).
